Here are results for two compounds from patent publication US20250051332A1 (priority 2022, published 2025).

One assay deals with KOR (Homo sapiens, UniProt P41145). Briefly: PDSP radioligand displacement binding. As to conditions: average of three independent trials. (In general: Displacement assays read how much labelled ligand stays bound in the presence of the test substance.)
The target of the next assay is NET (Homo sapiens, UniProt P23975). Briefly: PDSP radioligand displacement binding. As to conditions: average of three independent trials.
Assay [1] concerns the target T1, κOR (Homo sapiens, UniProt P41145).
T1 construct: host or cells: CHO-K1
Briefly: Competitive radioligand binding with [3H]U69,593. As to conditions: radioligand displacement assay.

For assay [2], the target named is T2, μOR (Homo sapiens, UniProt P35372).
T2 construct: host or cells: CHO-K1
Briefly: Competitive radioligand binding with [3H]DAMGO. As to conditions: radioligand displacement assay.

In the next assay the target is CXCR7 (Homo sapiens, UniProt P25106). Briefly: CXCR7 agonism follow-up of the PRESTO-Tango screen. In kind it is cell-based. The note with it: weak agonist compared to the CXCR7 agonist VUF11207.
Assay [3] has as its target T1, κOR. The assay can be described thus: cell-based. In kind it is cell-based.
For the next assay, the target named is T3, 5-HT3 (Homo sapiens, UniProt P46098).
T3 sequence (P46098 24-478): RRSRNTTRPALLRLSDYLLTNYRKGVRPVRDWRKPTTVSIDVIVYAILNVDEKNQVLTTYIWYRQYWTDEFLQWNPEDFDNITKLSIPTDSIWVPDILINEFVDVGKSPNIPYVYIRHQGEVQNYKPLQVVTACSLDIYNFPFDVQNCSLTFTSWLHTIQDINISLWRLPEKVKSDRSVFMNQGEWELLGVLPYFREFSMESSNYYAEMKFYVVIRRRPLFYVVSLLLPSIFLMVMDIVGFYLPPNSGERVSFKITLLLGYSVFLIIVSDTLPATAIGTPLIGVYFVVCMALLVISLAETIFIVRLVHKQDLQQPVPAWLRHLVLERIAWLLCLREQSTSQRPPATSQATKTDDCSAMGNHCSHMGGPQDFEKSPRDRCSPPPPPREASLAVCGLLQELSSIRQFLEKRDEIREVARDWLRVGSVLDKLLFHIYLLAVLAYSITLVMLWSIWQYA
The assay can be described thus: PDSP radioligand displacement binding. The note with it: average of three independent trials.

The next assay concerns the target T4, Alpha1D (Homo sapiens, UniProt P25100).
T4 sequence (P25100 1-572): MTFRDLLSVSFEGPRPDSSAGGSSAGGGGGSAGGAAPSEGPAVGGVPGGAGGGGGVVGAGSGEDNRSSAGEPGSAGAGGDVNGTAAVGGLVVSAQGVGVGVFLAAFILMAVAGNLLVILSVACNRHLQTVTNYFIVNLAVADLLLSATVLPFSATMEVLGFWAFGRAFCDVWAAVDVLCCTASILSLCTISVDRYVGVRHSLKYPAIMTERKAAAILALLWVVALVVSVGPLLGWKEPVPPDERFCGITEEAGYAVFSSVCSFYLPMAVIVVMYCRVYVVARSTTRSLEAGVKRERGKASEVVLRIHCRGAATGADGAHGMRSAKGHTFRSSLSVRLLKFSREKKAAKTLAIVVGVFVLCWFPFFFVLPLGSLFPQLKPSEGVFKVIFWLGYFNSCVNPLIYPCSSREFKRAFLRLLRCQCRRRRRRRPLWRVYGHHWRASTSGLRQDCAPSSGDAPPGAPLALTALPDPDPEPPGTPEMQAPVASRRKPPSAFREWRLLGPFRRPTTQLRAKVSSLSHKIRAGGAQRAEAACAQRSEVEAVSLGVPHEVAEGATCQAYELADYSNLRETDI
Briefly: PDSP radioligand displacement binding. The note with it: average of three independent trials.

The target in a further assay is Alpha7 (Homo sapiens, UniProt P36544). The assay can be described thus: PDSP radioligand displacement binding. As to conditions: average of three independent trials.
The target in another assay is T5, Alpha1A (Homo sapiens, UniProt P35348).
T5 sequence (P35348 1-466): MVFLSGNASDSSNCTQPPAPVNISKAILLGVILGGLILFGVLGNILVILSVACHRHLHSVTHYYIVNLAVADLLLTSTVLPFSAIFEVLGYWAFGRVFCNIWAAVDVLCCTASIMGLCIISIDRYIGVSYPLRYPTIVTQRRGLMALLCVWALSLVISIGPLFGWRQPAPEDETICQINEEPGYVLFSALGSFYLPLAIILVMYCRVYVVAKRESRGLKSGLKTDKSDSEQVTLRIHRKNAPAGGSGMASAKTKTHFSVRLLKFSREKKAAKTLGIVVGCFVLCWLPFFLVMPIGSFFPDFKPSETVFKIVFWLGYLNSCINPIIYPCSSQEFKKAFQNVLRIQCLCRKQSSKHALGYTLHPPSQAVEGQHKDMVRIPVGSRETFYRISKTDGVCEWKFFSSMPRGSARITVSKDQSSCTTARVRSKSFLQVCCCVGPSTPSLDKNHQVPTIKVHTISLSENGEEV
Briefly: PDSP radioligand displacement binding. As to conditions: average of three independent trials.

Assay [4] addresses T2, μOR. Briefly: cell-based. It is filed as cell-based.
In a further assay the target is 5-HT5A (Homo sapiens, UniProt P47898). Briefly: PDSP radioligand displacement binding. The note with it: average of three independent trials.
Another assay concerns the target 5-HT7A (Homo sapiens, UniProt P34969). Briefly: PDSP radioligand displacement binding. As to conditions: average of three independent trials.

Molecules are shown by their SMILES.

For the compound `C/C=C1/CN2CC[C@]34C(=C(C(=O)OC)[C@H]1C[C@H]23)Nc1ccc(I)cc14` [Compound 3, 10-Iodoakuammicine], the inhibition constant (Ki) on KOR is 1 nM; at NET, 3440 nM; at κOR [1] it was 0.087 nM; at μOR [2], 3600 nM; at 5-HT3, 384 nM; at Alpha1D it was 1140 nM. In addition, the inhibition constant Ki is 5490 nM at Alpha7, 883 nM on Alpha1A, 829 nM on 5-HT5A and 1380 nM on 5-HT7A. For the same compound, on CXCR7, the “concentration at which CXCR7 is activated” value is more than 3 µM. In addition, at κOR [3], the “κOR cAMP inhibition pEC50 ± SEM” value worked out at 8.2 ± 0.1. Further, the figures for the concentration for a half-maximal effect (EC50) at κOR [3] (read-out: κOR cAMP inhibition EC50) and at μOR [4] (read-out: μOR cAMP inhibition EC50) were 5.7 nM and 41000 nM, respectively. Besides, the “agonist activity at the μOR” value at μOR [4] is given as “only weakly activated the μOR”. The “μOR cAMP inhibition Emax ± SEM (%)” value at μOR [4] is given as less than 10%. Moreover, at μOR [4], the “μOR cAMP inhibition pEC50 ± SEM” value is given as 4.4 ± 1.9.

`C/C=C1/CN2CC[C@]34C(=C(C(=O)OC)[C@H]1C[C@H]23)Nc1ccc(Br)cc14` [Compound 2, 10-Bromoakuammicine]: the “Ki (nM) at NET” value at NET was “— (“—” indicates compound produced less than 50% displacement of radioligand in primary binding screen at 10 μM.)”. Also, the Ki at 5-HT3 came to 210 nM; at Alpha7 it was 7000 nM; at Alpha1A, 1000 nM; on 5-HT5A, 721 nM; on 5-HT7A, 1520 nM. The “Ki (nM) at Alpha1D” value on Alpha1D was “— (“—” indicates compound produced less than 50% displacement of radioligand in primary binding screen at 10 μM.)”. The “agonist activity at the μOR” value at μOR [4] is on record as “only weakly activated the μOR”.

As a reminder, the Ki is a dissociation constant, usually derived from enzyme kinetics or from competition with a known ligand. In general, EC50 refers to the midpoint of the concentration-response curve.
